According to patent US7851220B2, “Diacylhydrazine ligands for modulating the expression of exogenous genes in mammalian systems via an ecdysone receptor complex” (priority 2003, dated 2010):

Molecular target: T1, GAL4 DBD (1-147)-CfEcR(DEF)/VP16AD-βRXREF-LmUSPEF (Choristoneura fumiferana, UniProt O77240)
T1 construct: The wild-type D, E, and F domains from spruce budworm Choristoneura fumiferana EcR (“CfEcR-DEF”)
Test: 27-63 Assay (luciferase reporter gene assay in stably transfected CHO cell clone)
Type: cell-based
Conditions: for relative Max F1 27-63 Assay: maximum fold induction at any concentration relative to maximum fold induction of GS-E ligand
Method: Stably transfected cells were selected by Zeocin resistance. Individually isolated CHO cell clones were transiently transfected with a GAL4 RE-luciferase reporter (pFR Luc). 27-63 clone was selected using Hygromycin.
Cells were trypsinized and diluted to a concentration of 2.5×10^4 cells mL. 100 μL of cell suspension was placed in each well of a 96 well plate and incubated at 37° C. under 5% CO2 for 24 h. Ligand stock solutions were prepared in DMSO and diluted 300 fold for all treatments.
Luciferase reporter gene expression was measured 48 h after cell treatment using Bright-Glo™ Luciferase Assay System from Promega (E2650). Luminescence was detected at room temperature using a Dynex MLX microtiter plate luminometer. EC50s were calculated from dose response data using a three-parameter logistic model.
Each assay was conducted in two separate wells, and the two values were averaged.

[1] = CHO 27-63 clone, luciferase, 48 h

SMILES: Cc1cc(C)cc(C(=O)N(NC(=O)c2ccc3c(c2C)OC(C=NO)CO3)C(C)(C)C)c1 (stereo not shown) [RG-115814, 3,5-dimethyl-benzoic acid N-tert-butyl-N′-[3-(hydroxyimino-methyl)-5-methyl-2,3-dihydro-benzo[1,4]dioxine-6-carbonyl]-hydrazide]
- EC50: 320 nM
- relative Max F1 27-63 Assay [1]: 1.0

SMILES: Cc1cc(C)cc(C(=O)N(NC(=O)c2ccc3c(c2C)OC(CCN)CO3)C(C)(C)C)c1 (stereo not shown) [RG-115809, 3,5-dimethyl-benzoic acid N′-[3-(2-amino-ethyl)-5-methyl-2,3-dihydro-benzo[1,4]dioxine-6-carbonyl]-N-tert-butyl-hydrazide]
- EC50: 3250 nM
- relative Max F1 27-63 Assay [1]: 1.09

SMILES: COc1cccc(C(=O)NN(C(=O)c2cc(C)cc(C)c2)/C(=C/C#N)C(C)(C)C)c1C [RG-115860, 3-methoxy-2-methyl-benzoic acid N′-(1-tert-butyl-2-cyano-vinyl)-N′-(3,5-dimethylbenzoyl) hydrazide]
- Avg F1 27-63 Assay (at 33 μM, CHO 27-63 clone, luciferase, 48 h): Avg F1 = 2307 at 33 μM

SMILES: CNC(=O)C1COc2ccc(C(=O)NN(C(=O)c3cc(C)cc(C)c3)C(C)(C)C)c(C)c2O1 (stereo not shown) [RG-115811, 7-[N′-tert-butyl-N′-(3,5-dimethyl-benzoyl)-hydrazinocarbonyl]-8-methyl-2,3-dihydro-benzo[1,4]dioxine-2-carboxylic acid methylamide]
- EC50: > 33000 nM
- relative Max F1 27-63 Assay [1]: 0.24

SMILES: Cc1cc(C)cc(C(=O)N(NC(=O)c2ccc3c(c2C)OC(CF)CO3)C(C)(C)C)c1 (stereo not shown) [RG-115815, 3,5-dimethyl-benzoic acid N-tert-butyl-N′-(3-fluoromethyl-5-methyl-2,3-dihydro-benzo[1,4]dioxine-6-carbonyl)-hydrazide]
- EC50: 300 nM
- relative Max F1 27-63 Assay [1]: 0.738

SMILES: CCCCCCC(N(NC(=O)c1ccc(CC)cc1)C(=O)c1cccnc1OC)C(C)(C)C (stereo not shown) [RG-115845, 2-methoxy-nicotinic acid N-(1-tert-butyl-heptyl)-N′-(4-ethyl-benzoyl)-hydrazide]
- EC50: 4470 nM
- relative Max F1 27-63 Assay [1]: 0.52

SMILES: CSCC1COc2ccc(C(=O)NN(C(=O)c3cc(C)cc(C)c3)C(C)(C)C)c(C)c2O1 (stereo not shown) [RG-115817, 3,5-dimethyl-benzoic acid N-tert-butyl-N′-(5-methyl-3-methylsulfanylmethyl-2,3-dihydro-benzo[1,4]dioxine-6-carbonyl)-hydrazide]
- EC50: 2900 nM
- relative Max F1 27-63 Assay [1]: 0.95

SMILES: COc1cccc(C(=O)NN(C(=O)c2cc(C)cc(C)c2)C(/C=C(\C)C(C)(C)C)C(C)(C)C)c1C (stereo not shown) [RG-115855, 3-methoxy-2-methyl-benzoic acid N′-(1-tert-butyl-3,4,4-trimethyl-pent-2-enyl)-N′-(3,5-dimethyl-benzoyl)-hydrazide]
- EC50: 26.7 nM
- relative Max F1 27-63 Assay [1]: 1.16

SMILES: Cc1cc(C)cc(C(=O)N(NC(=O)c2ccc3c(c2C)OC(CO)CO3)C(C)(C)C)c1 (stereo not shown) [RG-115789, 3,5-dimethylbenzoic acid N-tert-butyl-N′-(3-hydroxymethyl-5-methyl-2,3-dihydrobenzo[1,4]dioxine-6-carbonyl)-hydrazide]
- EC50: 1850 nM
- relative Max F1 27-63 Assay [1]: 0.81

SMILES: CCCCCCC(N(NC(=O)c1ccc(CC)cc1)C(=O)c1cc(C)cc(C)c1)C(C)(C)C (stereo not shown) [RG-115843]
- EC50: 850 nM
- relative Max F1 27-63 Assay [1]: 0.73

SMILES: Cc1cc(C)cc(C(=O)N(NC(=O)c2ccc3c(c2C)OC(CC#N)CO3)C(C)(C)C)c1 (stereo not shown) [RG-115816, 3,5-Dimethyl-benzoic acid N-tert-butyl-N′-(3-cyanomethyl-5-methyl-2,3-dihydro-benzo[1,4]dioxine-6-carbonyl)-hydrazide]
- EC50: 4220 nM
- relative Max F1 27-63 Assay [1]: 0.85

SMILES: Cc1cc(C)cc(C(=O)N(NC(=O)c2ccc3c(c2C)OC(C=O)CO3)C(C)(C)C)c1 (stereo not shown) [RG-115812, 3,5-dimethyl-benzoic acid N-tert-butyl-N′-(3-formyl-5-methyl-2,3-dihydro-benzo[1,4]dioxine-6-carbonyl)-hydrazide]
- EC50: 2680 nM
- relative Max F1 27-63 Assay [1]: 0.86

SMILES: CCCCCCC(N(NC(=O)c1ccc(CC)cc1)C(=O)c1cc(OC)c(C)c(OC)c1)C(C)(C)C (stereo not shown) [RG-115844]
- EC50: 1230 nM
- relative Max F1 27-63 Assay [1]: 0.352

SMILES: CCCCC(N(NC(=O)c1cccc(OC)c1C)C(=O)c1cc(C)cc(C)c1)C(C)(C)CCC (stereo not shown) [RG-115877, 3,5-Dimethyl-benzoic acid N-(1-butyl-2,2-dimethyl-pentyl)-N′-(3-methoxy-2-methyl-benzoyl)-hydrazide]
- EC50: 2250 nM
- relative Max F1 27-63 Assay [1]: 1.48

SMILES: Cc1cc(C)cc(C(=O)N(NC(=O)c2ccc3c(c2C)OC(COC(=O)Nc2ccccc2)CO3)C(C)(C)C)c1 (stereo not shown) [RG-115808, phenyl-carbamic acid 7-[N′-tert-butyl-N′-(3,5-dimethyl-benzoyl)-hydrazinocarbonyl]-8-methyl-2,3-dihydro-benzo[1,4]dioxin-2-ylmethyl ester]
- EC50: 1120 nM
- relative Max F1 27-63 Assay [1]: 2.37

SMILES: CCCCCCC(N(NC(=O)c1cccc(OC)c1C)C(=O)c1cc(C)cc(C)c1)C(C)(C)C (stereo not shown) [RG-115853, 3,5-dimethyl-benzoic acid N-(1-tert-butyl-heptyl)-N′-(3-methoxy-2-methyl-benzoyl)-hydrazide]
- EC50: 100 nM
- relative Max F1 27-63 Assay [1]: 0.898

SMILES: Cc1cc(C)cc(C(=O)N(NC(=O)c2ccc3c(c2C)O[C@@H](CO[Si](C)(C)C(C)(C)C)CO3)C(C)(C)C)c1 [RG-115790, 3,5-dimethylbenzoic acid N-tert-butyl-N′-[3-(tert-butyldimethylsilytoxymethyl)-5-methyl-2,3-dihydrobenzo[1,4]dioxine-6-carbonyl]-hydrazide]
- EC50: > 33000 nM
- relative Max F1 27-63 Assay [1]: 0.0

SMILES: CCCCCCC(N(NC(=O)c1cccc(OC)c1C)C(=O)c1cc(OC)c(C)c(OC)c1)C(C)(C)C (stereo not shown) [RG-115854]
- EC50: 200 nM
- relative Max F1 27-63 Assay [1]: 0.917

SMILES: Cc1cc(C)cc(C(=O)N(NC(=O)c2ccc3c(c2C)OC(C(=O)Oc2c(F)c(F)c(F)c(F)c2F)CO3)C(C)(C)C)c1 (stereo not shown) [RG-115810, 7-[N′-tert-butyl-N′-(3,5-dimethyl-benzoyl)-hydrazinocarbonyl]-8-methyl-2,3-dihydro-benzo[1,4]dioxine-2-carboxylic acid pentafluorophenyl ester]
- EC50: ~20000 nM
- relative Max F1 27-63 Assay [1]: 1.23

SMILES: C=CCC(C)(C)C(CCCC)N(NC(=O)c1cccc(OC)c1C)C(=O)c1cc(C)cc(C)c1 (stereo not shown) [RG-115878, 3,5-dimethyl-benzoic acid N-(1-butyl-2,2-dimethyl-pent-4-enyl)-N′-(3-methoxy-2-methyl-benzoyl)-hydrazide]
- EC50: 100 nM
- relative Max F1 27-63 Assay [1]: 1.05

SMILES: Cc1ccc(S(=O)(=O)OCC2COc3ccc(C(=O)NN(C(=O)c4cc(C)cc(C)c4)C(C)(C)C)c(C)c3O2)cc1 (stereo not shown) [RG-115813, toluene-4-sulfonic acid 7-[N′-tert-butyl-N′-(3,5-dimethyl-benzoyl)-hydrazinocarbonyl]-8-methyl-2,3-dihydro-benzo[1,4]dioxin-2-ylmethyl ester]
- EC50: > 33000 nM
- relative Max F1 27-63 Assay [1]: 0.01

SMILES: Cc1cc(C)cc(C(=O)N(NC(=O)c2ccc3c(c2C)O[C@@H](CS(C)(=O)=O)CO3)C(C)(C)C)c1 [RG-115818, 3,5-Dimethyl-benzoic acid N-tert-butyl-N′-(3-methanesulfonyl-methyl-5-methyl-2,3-dihydro-benzo[1,4]dioxine-6-carbonyl)-hydrazide]
- EC50: 5260 nM

SMILES: Cc1cc(C)cc(C(=O)N(NC(=O)c2ccc3c(c2C)O[C@@H](C=NNC(N)=O)CO3)C(C)(C)C)c1 [RG-115807, 3,5-dimethyl-benzoic acid N-tert-butyl-N′-(3-formylsemicarbazide-5-methyl-2,3-dihydro-benzo[1,4]dioxine-6-carbonyl)-hydrazide]
- EC50: 3340 nM
- relative Max F1 27-63 Assay [1]: 0.80

SMILES: Cc1cc(C)cc(C(=O)N(NC(=O)c2ccc3c(c2C)OC(C(=O)O)CO3)C(C)(C)C)c1 (stereo not shown) [RG-115805, 7-[N′-tert-butyl-N′-(3,5-dimethyl-benzoyl)-hydrazinocarbonyl]-8-methyl-2,3-dihydro-benzo[1,4]dioxine-2-carboxylic acid]
- EC50: > 33000 nM
- relative Max F1 27-63 Assay [1]: 0.01

SMILES: COC(=O)[C@H]1COc2ccc(C(=O)NN(C(=O)c3cc(C)cc(C)c3)C(C)(C)C)c(C)c2O1 [RG-115806]
- EC50: ~33000 nM
- relative Max F1 27-63 Assay [1]: 0.25

SMILES: CCc1c(OC)cccc1C(=O)NN(C(=O)c1cc(C)cc(C)c1)C(C)(C)C [GS ™-E ligand, 3,5-Dimethyl-benzoic acid N-tert-butyl-N′-(2-ethyl-3-methoxy-benzoyl)-hydrazide, reference compound]
- EC50: 288 nM
